Results on 24 compounds are retold here after PubChem BioAssay (NCI).

What all share (experiment): DTP human tumour cell line panel, 48 h
Assay [1] concerns OVCAR-5 ovarian.
The test system of assay [2] is RPMI-8226 leukemia.
Assay [3] concerns MALME-3M melanoma.
The test system of assay [4] is NCI-H226 lung.
The test system of assay [5] is KM12 colon.
Assay [6] concerns NCI-H522 lung.
The test system of assay [7] is LOX IMVI melanoma.
In assay [8] the test system is SR leukemia.
Assay [9] concerns SF-268 CNS.
The subject of assay [10] is NCI/ADR-RES ovarian.
Assay [11] has as its system HCC-2998 colon.
Assay [12] has as its system K-562 leukemia.
Assay [13] deals with MDA-MB-435.

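Protocol summary: plate cells (96-well), add compound at 5 concentrations, incubate 48 h, interpolate endpoints linearly. The concentration for full growth arrest is given as TGI.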 Where a SMILES comes first, the peptide text is derived from it. The star is where a group is joined. Boc = CC(C)(C)OC(=O)*; Bn = c1ccc(C*)cc1 A value given as a limit tells only on which side of the number the result lay.

In the case of `CO/N=C(\C(=O)OC(=NC1CCCCC1)NC1CCCCC1)c1csc(NC(c2ccccc2)(c2ccccc2)c2ccccc2)n1`, the TGI in assay [1], in assay [2], in assay [3], in assay [4], in assay [5] and in assay [6] was more than 10 µM in each case. The TGI in assay [7], in assay [8], in [9], in assay [10], in assay [11] and in [12] was more than 10 µM throughout.
As to `CC1(C)[C@@H](Cn2ccc(=O)[nH]c2=O)CC[C@@]1(C)CO`, the total growth inhibition concentration (TGI) in [1], in assay [13], in [4], in assay [5], in assay [7] and in [9] was more than 100 µM in each case. Besides, the TGI in [10], in [11] and in [12] was more than 100 µM each time.
Take `CC(=O)CCn1c(=S)sc2ccccc21`: the TGI in assay [1], in assay [13], in assay [4], in assay [5], in assay [6] and in assay [7] was more than 100 µM throughout. In addition, the TGI in assay [9], in assay [10] and in assay [11] was more than 100 µM throughout.
As for `Cc1ccc(-c2c(C#N)c(-c3ccc(C)cc3)n(NS(=O)(=O)c3ccccc3)c(=O)c2C#N)cc1`, the TGI in assay [1] was more than 100 µM; in assay [2], 38.8 µM; in assay [13] it was more than 100 µM; in assay [3], more than 100 µM; in assay [4] it was more than 100 µM; in assay [5], more than 100 µM. Moreover, the TGI in assay [6], in assay [7], in assay [9], in [10], in assay [11] and in assay [12] was more than 100 µM each time.
For the compound `CCOC(=O)NC(Nc1ccc(C)cc1)(C(F)(F)F)C(F)(F)F`, the TGI in [1], in assay [2], in assay [13], in [3], in assay [4] and in assay [5] was more than 100 µM in each case. For the same compound, the total growth inhibition concentration (TGI) in assay [6], in [7], in assay [9], in [10], in assay [11] and in assay [12] was more than 100 µM throughout.
For the compound `CCCNC(=O)NNC(=O)c1c[nH]c2nc(C)ccc2c1=O`, the TGI in assay [1], in assay [2], in [13], in assay [3], in assay [4] and in assay [5] was more than 100 µM throughout. The total growth inhibition concentration (TGI) in assay [6], in assay [7], in assay [9], in [10] and in assay [12] was more than 100 µM in each case.
For `COC(=O)C(CC(C)C)NC(=O)C(C)NC(=O)C(Cc1ccc(OCc2ccccc2)cc1)NC(=O)C(COCc1ccccc1)NC(=O)OC(C)(C)C` (configuration not stated) (Boc-S(Bn)Y(Bn)AL-OMe; configuration not given here), the total growth inhibition concentration (TGI) in assay [1], in [2], in assay [13], in assay [3], in assay [4] and in [5] was more than 100 µM each time. The total growth inhibition concentration (TGI) in assay [6], in [7], in assay [8], in assay [9], in assay [10] and in assay [12] was more than 100 µM throughout.
Take `O=C1/C(=C/c2ccc(Br)s2)NC(=S)N1c1ccccc1`: the total growth inhibition concentration (TGI) was more than 100 µM in assay [1]; 85.1 µM in assay [2]; more than 100 µM in assay [13]; more than 100 µM in assay [3]; more than 100 µM in [4]; more than 100 µM in [5]. For the same compound, the TGI in assay [6], in assay [7], in assay [8], in [9], in assay [11] and in [12] was more than 100 µM throughout.
With `c1ccc(N=C(N2CCCC2)N(CCN2CCCC2)c2ccccc2)cc1`, the TGI in [1] is more than 100 µM; in assay [2] it was more than 100 µM; in [13], more than 100 µM; in assay [3], more than 100 µM; in assay [4] it was more than 100 µM; in [5] it was 41.7 µM. The TGI in [6], in [7], in assay [8], in assay [10] and in assay [12] was more than 100 µM throughout.
As to `CCOC(=O)Nc1[nH]cc(-c2ccccc2)c1C#N`, the total growth inhibition concentration (TGI) in assay [1], in [2], in [13], in assay [3], in assay [4] and in assay [5] was more than 100 µM each time. The TGI in assay [6], in [7], in [8], in assay [9], in [10] and in [12] was more than 100 µM throughout.
On to `COc1cccc(C(=O)Oc2ccc(OS(=O)(=O)c3ccc(C)cc3)cc2)c1C#N`, for which the total growth inhibition concentration (TGI) in assay [1], in assay [2], in assay [13], in assay [3], in [4] and in assay [5] was more than 100 µM in each case. Also, the total growth inhibition concentration (TGI) in assay [6], in assay [7], in assay [8], in assay [9], in assay [10] and in assay [12] was more than 100 µM each time.
With `COC(=O)/C=C(\C(=O)OC)C1C(=O)Oc2c(C)c(=O)c3ccccc3n21` (configuration not stated), the total growth inhibition concentration (TGI) in [2], in assay [13], in assay [3], in [4], in assay [5] and in assay [6] was more than 100 µM in each case. The concentration for total growth inhibition (TGI) in assay [7], in assay [8], in [9], in [10] and in assay [12] was more than 100 µM throughout.
For the compound `O=C1COc2cccnc2N1CCCCO`, the concentration for total growth inhibition (TGI) in [1], in assay [2], in [13], in assay [5], in [6] and in assay [7] was more than 100 µM each time. This compound had a TGI in [8] of more than 100 µM.
With `CC1(C)CC(=O)C(C=NC(=S)c2ccccc2)=C(O)C1`, the total growth inhibition concentration (TGI) in [1], in assay [13], in [4], in assay [5], in assay [6] and in [7] was more than 100 µM each time. Moreover, the TGI in assay [9], in assay [10] and in [11] was more than 100 µM throughout.
In the case of `CC1CC(OP(=O)(OCc2ccccc2)OCc2ccccc2)[C@@H](OCc2ccccc2)C(OCc2ccccc2)C1OCc1ccccc1` (some centres not stated), the concentration for total growth inhibition (TGI) in assay [1], in [2], in assay [3], in assay [4], in [6] and in assay [7] was more than 100 µM in each case. The total growth inhibition concentration (TGI) in assay [8], in [9], in assay [10], in assay [11] and in [12] was more than 100 µM in each case.
Regarding `O=C(O)CCCc1nc2c(n1Cc1ccccc1)C(=O)c1ccccc1C2=O`, the TGI in [1] is more than 100 µM; in assay [2], 68.8 µM; in assay [3], 47 µM; in [5], more than 100 µM; in assay [6], more than 100 µM; in assay [7], more than 100 µM. Further, the total growth inhibition concentration (TGI) in [8], in [9], in assay [10], in [11] and in [12] was more than 100 µM throughout.
In the case of `O=[N+]([O-])C[C@@]12O[C@]3(O)C4C5CC(C6C5C3C61)C42` (some centres not stated), the TGI in [1], in assay [2], in assay [13], in [3], in assay [4] and in [5] was more than 100 µM each time. The concentration for total growth inhibition (TGI) in [6], in assay [7], in [8], in [9], in assay [10] and in [12] was more than 100 µM throughout.
Take `NC(N)=NS(=O)(=O)c1ccc(NNc2c3ccccc3nc3c(C(=O)Nc4ccc(S(=O)(=O)Nc5ncccn5)cc4)cccc23)cc1`: the total growth inhibition concentration (TGI) is more than 100 µM in assay [1]; more than 100 µM in assay [2]; more than 100 µM in [13]; 67.8 µM in assay [3]; more than 100 µM in [5]; 45.9 µM in assay [6]. Also, the TGI in assay [9], in assay [10], in assay [11] and in assay [12] was more than 100 µM each time.
Take `COc1cc(C2C3C=CC=C4CC=CC(=C43)C3CCC(=O)N32)cc(OC)c1OC` (configuration not stated): the total growth inhibition concentration (TGI) in assay [1] was more than 100 µM; in assay [2] it was more than 100 µM; in [13], more than 100 µM; in assay [4] it was 36.3 µM; in [5], more than 100 µM; in [6], more than 100 µM. Further, the total growth inhibition concentration (TGI) in assay [7] is more than 100 µM; in [8], more than 100 µM; in assay [9] it was more than 100 µM; in [10], 69.8 µM; in assay [12] it was more than 100 µM.
On to `O=C1C2SC34c5c2c2ccccc2n5CCC3CCCN14` (configuration not stated), for which the total growth inhibition concentration (TGI) in assay [1], in assay [2], in [13], in [3], in [4] and in assay [5] was more than 100 µM each time. Besides, the TGI in [6], in assay [7], in assay [8], in [9], in [10] and in assay [12] was more than 100 µM throughout.
With `COc1cccc(CCNC(=O)Cc2ccccc2CCO)c1`, the TGI in assay [1], in assay [13], in [4], in assay [5], in assay [6] and in assay [8] was more than 100 µM in each case. Besides, the TGI in assay [9], in [10], in [11] and in assay [12] was more than 100 µM in each case.
As for `CCO/C(O)=C(/C(=N)N1CCOCC1)C(=O)Nc1ccc(F)cc1`, the concentration for total growth inhibition (TGI) in [1], in assay [2], in assay [13], in [3], in assay [4] and in assay [5] was more than 100 µM throughout. In addition, the total growth inhibition concentration (TGI) in [6], in assay [7], in assay [9], in [10], in assay [11] and in assay [12] was more than 100 µM throughout.
On to `N#Cc1n[nH]n(-c2ccc(Br)cc2)c1=O`, for which the TGI in assay [1], in [2], in assay [13], in assay [3], in [4] and in [5] was more than 100 µM each time. For the same compound, the TGI in [6], in [7], in assay [9], in assay [10], in assay [11] and in assay [12] was more than 100 µM throughout.
Turning to `O=c1oc2ccccc2cc1-c1cc2ccccn2c1`, the concentration for total growth inhibition (TGI) in assay [1], in [2], in [13], in [4], in [5] and in [6] was more than 100 µM each time. Besides, the concentration for total growth inhibition (TGI) in [7], in assay [9], in [10] and in [12] was more than 100 µM in each case.
